In patent US20230404996A1, “APPLICATION OF ISOQUINOLINE COMPOUND IN TUMOR TREATMENT” (NANJIANG SHIJIANG MEDICINE TECHNOLOGY CO., LTD, priority 2020, published 2023):
Counter-ions that a name gives are not always drawn. Like-named read-outs stand apart in the source and are kept apart here.

Assays:
[1] = test system: NCI-H82 cell overexpressing NNMT protein (ov-NNMT); assay: Sensitivity of NCI-H82 cell after overexpression of NNMT protein (intracellular ATP detection); assay type: cell-based, human; conditions: NNMT protein overexpressed alone (ov-NNMT), compared with Vector; FIG. 11
From the text: (§1) The NCI-H82 cell overexpressing NNMT protein was obtained by inserting the NNMT gene into NCI-1-182 cell using a viral vector. The expression of DNMT1 in NCI-H82 cells was knocked down using shRNA transfection. The changes in sensitivity of cell to isoquinoline compounds was investigated using intracellular ATP detection methods after overexpression of NNMT protein and/or knockdown of DNMT1 expression. The experiment result was shown in FIG. 11, wherein, “Vector” referred to NCI-1182 cell transfected with empty virus as control group.

NCI-H82 tumor = assay: Inhibitory effect on subcutaneous NCI-H82 tumor in nude mice; assay type: in vivo; conditions: nude mice inoculated with NCI-H82, intraperitoneally 10 mg/kg/day; FIG. 14
From the text: (§2) To verify whether the cells sensitive to isoquinoline compounds still maintained the sensitivity to isoquinoline compounds in vivo, inhibitory effect of berberine hydrochloride on tumor-bearing mice subcutaneously inoculated with sensitive cells (NCI-H82) was detected.
(§3) 5×10^6 of normal NCI-H82 cells, NCI-H82 cells with overexpression of NNMT protein and […] of DNMT1 (i.e. ov-NNMT/sh-DNMT1, the method for overexpressing NNMT protein and knocking down DNMT1 expression was shown in Example 13) were subcutaneously inoculated in nude mice to establish tumor-bearing mice. Each group of tumor-bearing mice was injected intraperitoneally with the berberine hydrochloride at a dose of 10 mg/kg/day, the change of tumor volume size over time was measured, and the tumors were removed and photographed in each group of mice at the end of the experiment to investigate the inhibitory effect of berberine hydrochloride on the tumor. The mice in control group was injected intraperitoneally with solvent vehicle in the same method, and the tumor volume was calculated as follows: tumor volume=½ length×width^2.

[2] = test system: NCI-H82 cell with knockdown of DNMT1 expression (sh-DNMT1 #1, sh-DNMT1 #2); assay: Sensitivity of NCI-H82 cell after knockdown of DNMT1 expression (intracellular ATP detection); assay type: cell-based, human; conditions: DNMT1 expression knocked down (sh-DNMT1 #1 or #2), compared with Vector; FIG. 11
From the text: as §1

MDA-MB-453 = assay: Cell viability (CellTiter-Glo) IC50 on tumor cell lines; assay type: cell-based; conditions: Homo sapiens, 72 h; MDA-MB-453, 3 days of culture; read-out: Inhibitory effect on cell line (IC50)
Procedure: (§4) The inhibitory effect of isoquinoline compounds on various tumor cell lines was detected using cell activity detection reagent.
(§5) Cell viability was detected using the Promega CellTiter-Glo kit, the kit reflected cell viability by directly measuring intracellular ATP content. In this experiment, the IC50 values of isoquinoline compounds on various tumor cell lines was determined.
(§6) Tumor cells were cultured in 10% FBS-containing medium (+p/s), and incubated for 3 h or the following day, then the gradient diluted isoquinoline compound was added. After 3 days of culture, the relevant IC50 (50% inhibiting concentration) was measured. The name, source and culture conditions of each tumor cell line were as follows: • Cell line NCI-H82 (ATCC, No. HTB-175) was cultured in 10% fetal bovine serum-containing RPMI1640 medium (+P/S). • Cell line G-401 (ATCC, No. CRL-1441) was cultured in 10% fetal bovine serum-containing McCoy's 5a medium (+P/S). • Cell line MDA-MB-453 (ATCC, No. HTB-131) was cultured in 10% fetal bovine serum-containing Leibovit's L-15 medium (+P/S). • Cell line SW48 (ATCC, No. CCL-231) was cultured in 10% fetal bovine serum-containing Leibovitz's L-15 medium (+P/S). • Cell line CFPAC-1 (ATCC, No. CRL-1918) was cultured in 10% fetal bovine serum-containing IMDM medium (+P/S). • Cell line 786-O (ATCC, No. CRL-1932) was cultured in 10% fetal bovine serum-containing RPMI1640 medium (+P/S). • Cell line GB-I (JCRB, No. IFO50489) was cultured in 10% fetal bovine serum-containing DMEM medium (+P/S). • Cell line SF126 (JCRB, No. IFO50286) was cultured in 10% fetal bovine serum-containing EMEM medium (+P/S).

SW48 = assay: as above; assay type: cell-based; conditions: Homo sapiens, 72 h; SW48, 3 days of culture; read-out: Inhibitory effect on cell line (IC50)
Procedure: as §4, §5, §6

CFPAC-1 = assay: as above; assay type: cell-based; conditions: Homo sapiens, 72 h; CFPAC-1, 3 days of culture; read-out: Inhibitory effect on cell line (IC50)
Procedure: as §4, §5, §6

G-401 = assay: as above; assay type: cell-based; conditions: Homo sapiens, 72 h; G-401, 3 days of culture; read-out: Inhibitory effect on cell line (IC50)
Procedure: as §4, §5, §6

786-O = assay: as above; assay type: cell-based; conditions: Homo sapiens, 786-0, 72 h, 3 days of culture, read-out: Inhibitory effect on cell line (IC50)
Procedure: as §4, §5, §6

GB-1 = assay: as above; assay type: cell-based; conditions: Homo sapiens, 72 h; GB-1, 3 days of culture; read-out: Inhibitory effect on cell line (IC50)
Procedure: as §4, §5, §6

SF-126 = assay: as above; assay type: cell-based; conditions: Homo sapiens, 72 h; SF-126, 3 days of culture; read-out: Inhibitory effect on cell line (IC50)
Procedure: as §4, §5, §6

[3] = test system: NCI-H82 cell ov-NNMT/sh-DNMT1 #1 and ov-NNMT/sh-DNMT1 #2; assay: Sensitivity of NCI-H82 cell after overexpression of NNMT and knockdown of DNMT1 (intracellular ATP detection); assay type: cell-based, human; conditions: NNMT overexpressed and DNMT1 knocked down simultaneously; FIG. 11
From the text: as §1

NCI-H82 = assay: Cell viability (CellTiter-Glo) IC50 on tumor cell lines; assay type: cell-based, human; conditions: NCI-H82, 3 days of culture, read-out: Inhibitory effect on cell line (IC50)
Procedure: as §4, §5, §6

[4] = test system: NCI-H82 ov-NNMT/sh-DNMT1 tumor; assay: Inhibitory effect on subcutaneous NCI-H82 ov-NNMT/sh-DNMT1 tumor in nude mice; assay type: in vivo; conditions: nude mice inoculated with ov-NNMT/sh-DNMT1, intraperitoneally 10 mg/kg/day, compared with NCI-H82 tumor; FIG. 15
From the text: as §2, §3

Kelly = assay: Cell viability (CellTiter-Glo) IC50 on brain tumor cell lines; assay type: cell-based; conditions: 72 h, 3 days of culture, read-out: Inhibitory effect on brain tumor cell line (IC50)
Procedure: (§7) The inhibitory effect of isoquinoline compounds on various brain tumor cell lines was detected using cell activity detection reagents.
(§8) Cell viability was detected using the Promega CeliTiter-Glo kit, the kit reflected cell viability by directly measuring intracellular ATP content. In this experiment, the IC50 values of isoquinoline compounds on various brain tumor cell lines was determined.
(§9) Brain tumor cells were cultured in 10% FBS-containing medium (+p/s), and incubated for 3 h or the following day, the gradient diluted isoquinoline compound was added. After 3 days of culture, the relevant IC50 (50% inhibiting concentration) was measured. The name, source and culture conditions of each brain tumor cell line were as follows: • Cell line D341 Med (ATCC, No. HTB-187) was cultured in 20% fetal bovine serum-containing EMEM medium (+P/S). • Cell line Kelly (ECACC, No. 92110411) was cultured in RPMI1640 medium containing 10% fetal bovine serum and 2 mM glutamine; • Cell line NB-I (ATCC, No. HTB-131) was cultured in 10% fetal bovine serum-containing Leibovitz's L-15 medium (+P/S).

NB-1 = assay: as above; assay type: cell-based; conditions: Homo sapiens, NB1, 72 h; NB-1, 3 days of culture; read-out: Inhibitory effect on brain tumor cell line (IC50)
Procedure: as §7, §8, §9

D341 Med = assay: as above; assay type: cell-based; conditions: 72 h, 3 days of culture, read-out: Inhibitory effect on brain tumor cell line (IC50)
Procedure: as §7, §8, §9

| Compound | Sensitivity of NCI-H82 cell to the compound [1] | Inhibitory effect on subcutaneous tumor (tumor volume) (NCI-H82 tumor) | Sensitivity of NCI-H82 cell to the compound [2] | IC50 (MDA-MB-453) [µM] | IC50 (SW48) [µM] | IC50 (CFPAC-1) [µM] | IC50 (G-401) [µM] | IC50 (786-O) [µM] | IC50 (GB-1) [µM] | IC50 (SF-126) [µM] | Sensitivity of NCI-H82 tumor cells to the compound [3] | IC50 (NCI-H82; Homo sapiens, 72 h) [µM] | Inhibitory effect on subcutaneous tumor (tumor volume) [4] | IC50 (Kelly) [µM] | IC50 (NB-1) [µM] | IC50 (D341 Med) [µM] | IC50 (NCI-H82) [µM] |
| --- | --- | --- | --- | --- | --- | --- | --- | --- | --- | --- | --- | --- | --- | --- | --- | --- | --- |
| COc1ccc2cc3[n+](cc2c1OC)CCc1cc2c(cc1-3)OCO2 [Berberine hydrochloride, reference compound] | decreased | significantly inhibit | decreased | 0.94 | 1.26 | 9.5 | 1.12 | 15.3 | 19.6 | 21.3 | decreased more significantly | 0.51 | significantly weaker | 4.1 | 1.7 | 4.5 |  |
| CCCOc1c(OC)ccc2cc3[n+](cc12)CCc1cc2c(cc1-3)OCO2 [Compound BBR-A1] |  |  |  | 0.8 | 0.2 | 8.3 | 1 | 16.3 | 9.1 | 7.5 |  | 0.4 |  | 1.3 | 0.3 | 1 |  |
| C=CCOc1c(OC)ccc2cc3[n+](cc12)CCc1cc2c(cc1-3)OCO2 [Compound BBR-A2] |  |  |  | 1.3 | 3.2 | 14.9 | 1.6 | 37.1 | 11.2 | 22.6 |  | 0.7 |  | 2.1 | 0.6 | 1.7 |  |
| COc1ccc2cc3[n+](cc2c1OCC(=O)OC(C)(C)C)CCc1cc2c(cc1-3)OCO2 [Compound BBR-A5] |  |  |  | 0.7 | 1.8 | 17.7 | 1.1 | 18.5 | 9.2 | 15.5 |  | 0.5 |  | 1.8 | 0.3 | 1.5 |  |
| c1c2c(cc3c1OCO3)-c1cc3ccc4c(c3c[n+]1CC2)OCO4 [Coptisine hydrochloride] |  |  |  | 1.6 | 6 | 22.1 | 3.4 | > 30 | 24.8 | > 30 |  |  |  | 4.4 | 2.5 | 2.8 | 1.8 |
| Cc1c2[n+](cc3cc4c(cc13)OCO4)CCc1cc3c(cc1-2)OCO3 [worenine] |  |  |  | 1.3 | 9.6 | > 30 | 2.3 | > 30 | > 30 | > 30 |  | 4.3 |  | 3.9 | 2.6 | 4.8 |  |
